Measured values as given in patent publication US8993566B2, “Quinoline compound composing 1,2,4-triazine-dione and use thereof” (Wuhan Shengyun Biopharma Co., Ltd., priority 2012, dated 2015).
Converted amounts (≈) assume the structure as drawn. Like-named read-outs stand apart in the source and are kept apart here.

Columns and labels:
[1] = system: human hepatoma carcinoma cell line SMMC-7721; test: In vitro anti-tumor cell activity (MTT), SMMC-7721; type: cell-based; conditions: for IC50: Homo sapiens, read-out: SMMC-7721 IC50
Procedure: (§1) The digested cell solution was poured into a centrifuge tube, to which a culture media was added to stop the digestion. The centrifuge tube was centrifuged at 800 r/min for 10 min, the supernatant was removed gently and then 5 mL of the culture media was added. The cells were pipetted and mixed homogeneously. 10 μL cell suspension was taken into a cell counting plate for counting, wherein the cell concentration was adjusted to 10^4 cells/well. To each well of a 96-well plate, except for A1 well as blank control, was added 100 μL of the cell suspension. The 96-well plate was placed in an incubator and cultivated for 24 h. […] The 96-well plate was placed in an incubator and cultivated for 72 h. (3) The culture media containing the compounds in the 96-well plate was removed, and the cells were washed with phosphate buffered solution (PBS) twice. To each well was added 100 μL MTT (tetrazole) (0.5 mg/mL), after placing the plate in an incubator to incubate for 4 h, the MTT solution was removed and 100 μL dimethyl sulfoxide was added. The reaction product of survival cells with MTT, i.e. formazan, was dissolved completely by oscillation on a magnetic oscillator, and then placed into a microplate reader to measure the results, and the IC50 values of compounds could be deduced by Bliss method.

[2] = system: human colon cancer cell HT-29; test: In vitro anti-tumor cell activity (MTT), HT-29; type: cell-based; conditions: for IC50: Homo sapiens, read-out: HT-29 IC50
Procedure: as §1

[3] = system: human gastric cancer cell MKN-45; test: In vitro anti-tumor cell activity (MTT), MKN-45; type: cell-based; conditions: for IC50: Homo sapiens, read-out: MKN-45 IC50
Procedure: as §1

[4] = system: human nonsmall-cell lung cancer cell H460; test: In vitro anti-tumor cell activity (MTT), H460; type: cell-based; conditions: for IC50: Homo sapiens, read-out: H460 IC50
Procedure: as §1

[5] = target: T1, c-Met kinase (His-tagged recombinant human Met (amino acids 974-end)) (Homo sapiens, UniProt P08581); test: c-Met Enzyme Activity Inhibition Assay (ELISA); type: biochemical; conditions: 50 pM c-Met, 5 μM ATP, room temperature 20 min; for IC50: read-out: IC50 for inhibiting c-Met kinase (converted)
T1 construct: His-tagged recombinant human Met (amino acids 974-end); His
T1 sequence (P08581 956-1390): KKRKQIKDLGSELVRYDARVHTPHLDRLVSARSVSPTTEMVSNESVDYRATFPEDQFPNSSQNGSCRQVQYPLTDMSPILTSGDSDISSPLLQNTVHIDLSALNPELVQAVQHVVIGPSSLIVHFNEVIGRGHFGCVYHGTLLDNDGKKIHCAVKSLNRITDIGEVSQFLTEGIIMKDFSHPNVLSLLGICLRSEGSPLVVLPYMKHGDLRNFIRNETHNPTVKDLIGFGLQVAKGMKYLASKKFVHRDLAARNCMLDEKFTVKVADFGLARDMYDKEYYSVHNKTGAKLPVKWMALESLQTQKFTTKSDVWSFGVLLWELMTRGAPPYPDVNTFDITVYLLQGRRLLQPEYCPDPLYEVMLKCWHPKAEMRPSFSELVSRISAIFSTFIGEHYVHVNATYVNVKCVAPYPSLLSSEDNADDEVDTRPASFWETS
Procedure: c-Met Enzyme Activity Inhibition Assay
The assay for the determination of c-Met kinase activity is based on an enzyme linked immunosorbant assay (ELISA). A compound of Formula I, 50 pM c-Met (His-tagged recombinant human Met (amino acids 974-end), expressed by baculovirus), and 5 μM ATP in an assay buffer (25 mM MOPS, pH 7.4, 5 mM MgCl2, […], 100 μM sodium orthovanadate, 0.01% Triton X-100, 1 mM DTT, final DMSO concentration 1% (v/v)) were incubated on a plate coated with 0.25 mg/mL POT at room temperature for 20 min. The reaction mixture was removed by washing and the phosphorylated polymer substrate was detected with 0.2 μg/mL phosphotyrosine specific monoclonal antibody (PY20) conjugated to horseradish peroxidase (HRP). After the addition of 1M phosphoric acid to stop the development, the chromogenic substrate (TMB) color was quantitated by spectrophotometry at 450 nm.

[6] = SMMC-7721 cells, MTT, 72 h, Bliss method
[7] = HT-29 cells, MTT, 72 h, Bliss method
[8] = MKN-45 cells, MTT, 72 h, Bliss method
[9] = H460 cells, MTT, 72 h, Bliss method
[10] = NCI-H460, H460 cells, MTT, 72 h, Bliss method

In the case of “N-[3-fluoro-4-[6-methoxy-7-[3-(1-pyrrolidyl)propyloxy]quinolin-4-oxy]phenyl]-2-(3-trifluoromethylphenyl)-4-methyl-3,5-dicarbonyl-2,3,4,5-tetrahydro-1,2,4-triazine-6-carboxamide [Example 21]”, the “SMMC-7721 IC50” value [1, 6] was 0.32 µg/mL, the “HT-29 IC50” value [2, 7] was 0.13 µg/mL and the “MKN-45 IC50” value [3, 8] was 0.0002 µg/mL. For the same compound, the “H460 IC50” value [4, 9] was 0.24 µg/mL and the “IC50 for inhibiting c-Met kinase” value [5] was 0.13 µg/mL.
“N-[3-fluoro-4-[6-methoxy-7-[3-(4-methyl-1-piperidinyl)propyloxy]quinolin-4-oxy]phenyl]-2-(3-trifluoromethylphenyl)-4-methyl-3,5-dicarbonyl-2,3,4,5-tetrahydro-1,2,4-triazine-6-carboxamide [Example 24]” was tested, and the “SMMC-7721 IC50” value [1, 6] was 0.61 µg/mL, the “HT-29 IC50” value [2, 7] was 0.5 µg/mL and the “MKN-45 IC50” value [3, 8] was 0.093 µg/mL. The “H460 IC50” value [4, 9] was 0.28 µg/mL and the “IC50 for inhibiting c-Met kinase” value [5] was 0.18 µg/mL.
`COc1cc2c(Oc3ccc(NC(=O)c4nn(-c5ccc(F)c(F)c5)c(=O)n(C)c4=O)cc3F)ccnc2cc1OCCCN1CCOCC1` [Example 18, N-[3-fluoro-4-[6-methoxy-7-[3-(4-morpholinyl)propyloxy]quinolin-9-oxy]phenyl]-2-(3,4-difluorophenyl)-4-methyl-3,5-dioxo-2,3,4,5-tetrahydro-1,2,4-triazine-6-carboxamide] was tested, and the “SMMC-7721 IC50” value [1, 6] was 0.45 µg/mL, the “HT-29 IC50” value [2, 7] was 0.3 µg/mL and the “MKN-45 IC50” value [3, 8] was 0.0008 µg/mL. For the same compound, the “H460 IC50” value [4, 9] was 0.57 µg/mL and the “IC50 for inhibiting c-Met kinase” value [5] was 0.32 µg/mL.
In the case of “N-[3-fluoro-4-[6-methoxy-7-[3-(4-methyl-1-piperazinyl)propyloxy]quinolin]-4-oxy]phenyl]-2-(3,4-difluorophenyl)-4-benzyl]-3,5-dicarbonyl-2,3,4,5-tetrahydro-1,2,4-triazine-6-carboxamide [Example 45]”, the “SMMC-7721 IC50” value [1, 6] was 1.1 µg/mL, the “HT-29 IC50” value [2, 7] was 0.28 µg/mL and the “MKN-45 IC50” value [3, 8] was 0.05 µg/mL. For the same compound, the “H460 IC50” value [4, 9] was 0.34 µg/mL and the “IC50 for inhibiting c-Met kinase” value [5] was 2.72 µg/mL.
For “N-[3-fluoro-4-[7-methoxy-6-[3-(1-pyrrolidyl)propyloxy]quinolin-4-oxy]phenyl]-2-(3-fluorophenyl)-4-butyl-3,5-dioxo-2,3,4,5-tetrahydro-1,2,4-triazine-6-carboxamide [Example 30]”, the “SMMC-7721 IC50” value [1, 6] was 0.46 µg/mL, the “HT-29 IC50” value [2, 7] was 0.11 µg/mL and the “MKN-45 IC50” value [3, 8] was 0.043 µg/mL. The “H460 IC50” value [4, 9] was 0.18 µg/mL and the “IC50 for inhibiting c-Met kinase” value [5] was 0.058 µg/mL.
In the case of “N-[3-fluoro-4-[6-methoxy-7-[3-(1-pyrrolidyl)propyloxy]quinolin]-4-oxy]phenyl]-2-(4-fluorophenyl)-4-allyl-3,5-dicarbonyl-2,3,4,5-tetrahydro-1,2,4-triazine-6-carboxamide [Example 42]”, the “SMMC-7721 IC50” value [1, 6] was 0.92 µg/mL, the “HT-29 IC50” value [2, 7] was 0.77 µg/mL and the “MKN-45 IC50” value [3, 8] was 0.11 µg/mL. The “H460 IC50” value [4, 9] was 1.1 µg/mL and the “IC50 for inhibiting c-Met kinase” value [5] was 1.63 µg/mL.
In the case of `COc1cc2c(Oc3ccc(NC(=O)c4nn(-c5ccc(Cl)cc5)c(=O)n(C)c4=O)cc3F)ccnc2cc1OCCCN1CCOCC1` [Example 27, N-[3-fluoro-4-[6-methoxy-7-[3-(4-morpholinyl)propyloxy]quinolin-4-oxy]phenyl]-2-(4-chlorophenyl)-4-methyl-3,5-dioxo-2,3,4,5-tetrahydro-1,2,4-triazine-6-carboxamide], the IC50 [1, 6] was 0.58 µg/mL (≈ 0.839 µM), the IC50 [2, 7] was 0.18 µg/mL (≈ 0.26 µM) and the IC50 [3, 8] was 0.0053 µg/mL (≈ 0.00767 µM). The IC50 [4, 10] was 0.23 µg/mL (≈ 0.333 µM) and the IC50 [5] was 0.0593 µM.
`COc1cc2c(Oc3ccc(NC(=O)c4nn(-c5ccc(F)c(F)c5)c(=O)n(C)c4=O)cc3F)ccnc2cc1OCCCN1CCC(C)CC1` [Example 19, N-[3-fluoro-4-[6-methoxy-7-[3-(4-methylpiperidin-1-yl)propyloxy]quinolin-4-oxy]phenyl]-2-(3,4-difluorophenyl)-4-methyl-3,5-dioxo-2,3,4,5-tetrahydro-1,2,4-triazine-6-carboxamide] gave an IC50 [1, 6] of 0.74 µg/mL (≈ 1.05 µM), an IC50 [2, 7] of 0.24 µg/mL (≈ 0.341 µM) and an IC50 [3, 8] of 0.23 µg/mL (≈ 0.326 µM). The IC50 [4, 10] was 1.1 µg/mL (≈ 1.56 µM) and the IC50 [5] was 0.766 µM.
“N-[3-fluoro-4-[7-methoxy-6-[3-(4-methyl-1-piperidinyl)propyloxy]quinolin-4-oxy]phenyl]-2-(2-trifluoromethylphenyl)-4-allyl-3,5-dioxo-2,3,4,5-tetrahydro-1,2,4-triazine-6-carboxamide [Example 36]” was tested, and the “SMMC-7721 IC50” value [1, 6] was 2.4 µg/mL, the “HT-29 IC50” value [2, 7] was 0.43 µg/mL and the “MKN-45 IC50” value [3, 8] was 0.21 µg/mL. For the same compound, the “H460 IC50” value [4, 9] was 1.7 µg/mL and the “IC50 for inhibiting c-Met kinase” value [5] was 1.1 µg/mL.
`COc1cc2c(Oc3ccc(NC(=O)c4nn(-c5ccccc5)c(=O)n(C)c4=O)cc3F)ccnc2cc1OCCCN1CCCC1` [Example 1, N-[3-fluoro-4-[6-methoxy-7-[3-(tetrahydropyrrol-1-yl)propyloxy]quinolin-4-oxy]phenyl]-2-phenyl-4-methyl-3,5-dioxo-2,3,4,5-tetrahydro-1,2,4-triazine-6-carboxamide] was tested, and the IC50 ([1]; SMMC-7721, 72 h) was 0.18 µg/mL (≈ 0.281 µM), the IC50 ([2]; HT-29, 72 h) was 0.12 µg/mL (≈ 0.187 µM) and the IC50 ([3]; MKN-45, 72 h) was 0.042 µg/mL (≈ 0.0656 µM). The IC50 ([4]; NCI-H460, 72 h) was 0.26 µg/mL (≈ 0.406 µM) and the IC50 [5] was 0.0718 µM.
“N-[3-fluoro-4-[6-methoxy-7-[3-(4-methyl-1-piperazinyl)propyloxy]quinolin]-4-oxy]phenyl]-2-(2-fluorophenyl)-4-allyl-3,5-dicarbonyl-2,3,4,5-tetrahydro-1,2,4-triazine-6-carboxamide [Example 41]” was tested, and the “SMMC-7721 IC50” value [1, 6] was 1.4 µg/mL, the “HT-29 IC50” value [2, 7] was 1.1 µg/mL and the “MKN-45 IC50” value [3, 8] was 0.06 µg/mL. The “H460 IC50” value [4, 9] was 0.8 µg/mL and the “IC50 for inhibiting c-Met kinase” value [5] was 2.7 µg/mL.
For “N-[3-fluoro-4-[7-methoxy-6-[3-(1-pyrrolidyl)propyloxy]quinolin-4-oxy]phenyl]-2-(2-trifluoromethylphenyl)-4-butyl-3,5-dicarbonyl-2,3,4,5-tetrahydro-1,2,4-triazine-6-carboxamide [Example 35]”, the “SMMC-7721 IC50” value [1, 6] was 0.31 µg/mL, the “HT-29 IC50” value [2, 7] was 0.079 µg/mL and the “MKN-45 IC50” value [3, 8] was 0.005 µg/mL. The “H460 IC50” value [4, 9] was 0.12 µg/mL and the “IC50 for inhibiting c-Met kinase” value [5] was 0.03 µg/mL.
With `COc1cc2c(Oc3ccc(NC(=O)c4nn(-c5ccccc5)c(=O)n(C)c4=O)cc3F)ccnc2cc1OCCCN1CCN(C)CC1` [Example 5, N-[3-fluoro-4-[6-methoxy-7-[3-(4-methyl-1-piperazinyl)propyloxy]oxy]phenyl)-2-phenyl-4-methyl-3,5-dioxo-2,3,4,5-tetrahydro-1,2,4-triazine-6-carboxamide] the “SMMC-7721 IC50” value [1, 6] was 0.15 µg/mL, the “HT-29 IC50” value [2, 7] was 0.12 µg/mL and the “MKN-45 IC50” value [3, 8] was 0.12 µg/mL. For the same compound, the “H460 IC50” value [4, 9] was 0.094 µg/mL and the “IC50 for inhibiting c-Met kinase” value [5] was 0.28 µg/mL.
`COc1cc2c(Oc3ccc(NC(=O)c4nn(-c5ccc(F)cc5)c(=O)n(C)c4=O)cc3F)ccnc2cc1OCCCN1CCC(C)CC1` [Example 9, N-[3-fluoro-4-[6-methoxy-7-[3-(4-methyl-1-piperidinyl)propyloxy]quinolin-4-oxy]phenyl]-2-(4-fluorophenyl)-4-methyl-3,5-dioxo-2,3,4,5-tetrahydro-1,2,4-triazine-6-carboxamide] showed an IC50 [1, 6] of 0.09 µg/mL (≈ 0.131 µM), an IC50 [2, 7] of 0.21 µg/mL (≈ 0.306 µM) and an IC50 [3, 8] of 0.065 µg/mL (≈ 0.0947 µM). The IC50 [4, 10] was 0.17 µg/mL (≈ 0.248 µM) and the IC50 [5] was 0.233 µM.
`C=CCn1c(=O)c(C(=O)Nc2ccc(Oc3ccnc4cc(OCCCN5CCCC5)c(OC)cc34)c(F)c2)nn(-c2ccc(Cl)cc2)c1=O` [Example 38] was tested, and the “SMMC-7721 IC50” value [1, 6] was 1.8 µg/mL, the “HT-29 IC50” value [2, 7] was 0.54 µg/mL and the “MKN-45 IC50” value [3, 8] was 0.62 µg/mL. The “H460 IC50” value [4, 9] was 1.4 µg/mL and the “IC50 for inhibiting c-Met kinase” value [5] was 2.76 µg/mL.
